Reference: patent US11905277B1, “2-alkyloxy-6-(2-oxo-2H-1-benzopyran-3-yl)-4-phenylpyridine-3-carbonitrile as an antimicrobial compound” (KING FAISAL UNIVERSITY, priority 2023, dated 2024)

How the values were obtained:
Bacillus cereus = assay: Agar plate disc-diffusion, antibacterial activity (inhibition zone); format: cell-based; conditions: nutrient agar, 37° C., 48 h, DMSO zone subtracted
Experimental: (§1) The agar plate disc-diffusion method was applied. Sterilized filter papers (6 mm in diameter) were wetted with 10 μL of a solution of 2-ethoxy-6-(2-oxo-2H-1-benzopyran-3-yl)-4-phenylpyridine-3-carbonitrile (1) and 2-methoxy-6-(2-oxo-2H-1-benzopyran-3-yl)-4-phenylpyridine-3-carbonitrile (2) to be tested, containing […], and the discs were allowed to air dry. The discs were then placed onto the surface of agar plates (nutrient agar for bacteria and Sabouraud's dextrose agar for fungi) seeded with the test organism. Each plate contained 15 mL of the agar medium, previously seeded with 0.2 mL of the broth culture of each organism pregrown for 18 hours. The plates were incubated at 37° C. for 48 h, and 72 h for fungi. The inhibition zones were measured in mm. Discs impregnated with DMSO were used as a control, and its inhibition zone was subtracted from the tested compound actual inhibition zone.

Escherichia coli = assay: as above; format: cell-based; conditions: nutrient agar, 37° C., 48 h, DMSO zone subtracted
Experimental: as §1

Pseudomonas aeruginosa = assay: as above; format: cell-based; conditions: nutrient agar, 37° C., 48 h, DMSO zone subtracted
Experimental: as §1

Staphylococcus aureus = assay: as above; format: cell-based; conditions: nutrient agar, 37° C., 48 h, DMSO zone subtracted
Experimental: as §1

Aspergillus flavus = assay: Agar plate disc-diffusion, antifungal activity (inhibition zone); format: cell-based; conditions: Sabouraud's dextrose agar, 72 h, DMSO zone subtracted
Experimental: as §1

[1] = tested on: Chrysosporium keratinophilum; assay: as above; format: cell-based; conditions: Sabouraud's dextrose agar, 72 h, DMSO zone subtracted
Experimental: as §1

different microbes = assay: Antimicrobial testing, overall statement on Tables 1 and 2; format: cell-based; conditions: summary of Tables 1 and 2; bacteria and fungi tested
Experimental: as §1
Their antibacterial activity was screened against gram positive bacteria namely Bacillus cereus and Staphylococcus aureus and gram-negative bacterial strains namely Pseudomonas aeruginosa and Escherichia coli, while their antifungal activity was screened against Aspergillus flavus and Chrysosporium keratinophilum.

[2] = A = concentration of comp. = 10,000 μL
[3] = B = concentration of comp. = 30.000 μL
[4] = C = concentration of comp. = 50,000 μL

Compound | inhibition zone (Bacillus cereus; [2]) [mm] | inhibition zone (Bacillus cereus; [3]) [mm] | inhibition zone (Bacillus cereus; [4]) [mm] | inhibition zone (Escherichia coli; [2]) [mm] | inhibition zone (Escherichia coli; [3]) [mm] | inhibition zone (Escherichia coli; [4]) [mm] | inhibition zone (Pseudomonas aeruginosa; [2]) [mm] | inhibition zone (Pseudomonas aeruginosa; [3]) [mm] | inhibition zone (Pseudomonas aeruginosa; [4]) [mm] | inhibition zone (Staphylococcus aureus; [2]) [mm] | inhibition zone (Staphylococcus aureus; [3]) [mm] | inhibition zone (Staphylococcus aureus; [4]) [mm] | inhibition zone (Aspergillus flavus; [2]) [mm] | inhibition zone (Aspergillus flavus; [3]) [mm] | inhibition zone (Aspergillus flavus; [4]) [mm] | inhibition zone [1, 2] [mm] | inhibition zone [1, 3] [mm] | inhibition zone [1, 4] [mm] | antimicrobial activity (in words) (different microbes) | melting point [°C]
O=C(O)c1cn(C2CC2)c2cc(N3CCNCC3)c(F)cc2c1=O [Cip., reference compound] | 29 | 30 | 42 | 30 | 39 | 60 | 29 | 30 | 53 | 43 | 44 | 53 | 29 | 30 | 42 | 29 | 30 | 53 |  | 
CCOc1nc(-c2cc3ccccc3oc2=O)cc(-c2ccccc2)c1C#N [Compound 1, 2-ethoxy-6-(2-oxo-2H-1-benzopyran-3-yl)-4-phenylpyridine-3-carbonitrile] | 31 | 36 | 43 | 38 | 43 | 48 | 25 | 32 | 40 | 11 | 19 | 21 | 29 | 33 | 41 | 22 | 31 | 37 | high antimicrobial activities | 
COc1nc(-c2cc3ccccc3oc2=O)cc(-c2ccccc2)c1C#N [Compound 2, 2-methoxy-6-(2-oxo-2H-1-benzopyran-3-yl)-4-phenylpyridine-3-carbonitrile] | 33 | 38 | 44 | 37 | 43 | 49 | 25 | 34 | 41 | 15 | 22 | 25 | 17 | 21 | 29 | 31 | 39 | 47 | high antimicrobial activities | 149 to 150
